Test results reported in US5084082A, “Soybean plants with dominant selectable trait for herbicide resistance” (priority 1990, dated 1992).

Columns and labels:
ALS of W4-5 = assay: In vitro ALS activity of leaf tissue in the presence of Compounds 8 and 9; format: biochemical, soybean; settings: W4-5, 100 ppb
Excerpt: (§1) At approximately 1 month after transplantation, some of the selections appeared much healthier than others. For example, W4-4, W4-6, W6-1, W6-2, W6-4, W23-10, and W23-11 recovered very well from the seed soak treatment with Compound 8. These plants were suspected of having a higher level of ALS resistance to Compound 8 than did the parental material from which they were derived. The applicant was also interested to see if any of these selections were cross resistant to an imidazolinone herbicide such as Compound 9. To test this hypothesis, leaf tissue of the one-month-old M2 plants was sampled and assayed in vitro for ALS activity in the presence of Compound 8 and Compound 9. The ALS assay procedure was essentially identical to the previously described ALS assay except that the herbicide concentrations tested were 100 ppb Compound 8 and 10 ppm Compound 9. Williams and mutant W20 soybean plants were also assayed as control genotypes for comparison. Williams contains no genes conferring the ALS-based sulfonylurea resistance while W20 is homozygous for a single mutation conferring ALS-based sulfonylurea resistance.
(§2) Acetolactate synthase (ALS) was extracted from leaves of soybean plants growing vegetatively. The leaves were homogenized in 4 volumes of buffer containing 100 mM hepes (pH 7.5), 1 mM sodium pyruvate, 0.5 mM magnesium chloride, 0.5 mM thiamine pyrophosphate, […], 10% glycerol, 5% PVPP, and 0.2% mercaptoethanol. The homogenate was filtered through cheese cloth and centrifuged at 20,000 g for 20 min. ALS was precipitated from the supernatant with ammonium sulfate. The enzyme was collected between 20 and 60% saturation by centrifugation at 20,000 g for 20 min. The pellet was resuspended in buffer containing 100 mM Hepes, 1 mM sodium pyruvate, and 0.5 mM magnesium chloride, and desalted on PD-10 columns (Pharmacia) equilibrated with the same buffer. ALS assays were carried out in a final volume of 0.5 mL at 30° C. The final reaction mixture contained 100 mM Hepes (pH 7.5), 1 mM magnesium chloride, 60 mM sodium pyruvate, 0.4 mM thiaminepyrophosphate, […], and various concentrations of chlorsulfuron. The assays were initiated with the addition of enzyme ([…]) and terminated with the addition of […] of 6N sulfuric acid. The acidified reaction mixture was heated to 60° C. for 15 min, after which 0.5 mL of 0.5% (W/V) creatine and 0.5 mL of 5% (W/V) napthol (freshly prepared in 2.5 N sodium hydroxide) were added. The reaction mixtures were heated for an additional 15 min at 60° C., and the absorbance was read at 525 nm. Data are expressed in terms of % control (minus Compound 1) activity and are the average of two replications. Fisher's least significant difference (LSD) value (at the 95% level of confidence) was calculated for each Compound 1 concentration to determine the significance of genotype mean differences.

ALS of W23-10 = assay: as above; format: biochemical, soybean; settings: W23-10, 100 ppb
Excerpt: as §1, §2

ALS of W4-4 = assay: as above; format: biochemical, soybean; settings: W4-4, 100 ppb
Excerpt: as §1, §2

ALS of W23-11 = assay: as above; format: biochemical, soybean; settings: W23-11, 100 ppb
Excerpt: as §1, §2

ALS of W20 = assay: as above; format: biochemical, soybean; settings: W20, 100 ppb
Excerpt: as §1, §2

ALS of W6-4 = assay: as above; format: biochemical, soybean; settings: W6-4, 100 ppb
Excerpt: as §1, §2

ALS of W6-1 = assay: as above; format: biochemical, soybean; settings: W6-1, 100 ppb
Excerpt: as §1, §2

ALS of Williams = assay: as above; format: biochemical, soybean; settings: 100 ppb
Excerpt: as §1, §2

ALS of W4-6 = assay: as above; format: biochemical, soybean; settings: W4-6, 100 ppb
Excerpt: as §1, §2

ALS of W6-2 = assay: as above; format: biochemical, soybean; settings: W6-2, 100 ppb
Excerpt: as §1, §2

[1] = tested on: Williams-NMU-1 M2 seedlings; assay: Hydroponic selection of M2 seeds with Compound 1; format: in vivo, soybean; settings: 100 ppb
Protocol: Four Modified Hydropot Solo units were prepared as described in the Detailed Description by filling the planting tanks with a 5 cm layer of pea gravel followed by a 10 cm layer of fine vermiculite. M2 seeds of the William-NMU-1 were densely planted (approx. 16,600 seeds per square meter) by placing the seeds in a single horizontal layer on top of the vermiculite and then covering the seeds with a second level 2.5 cm layer of vermiculite. The nutrient solution reservoir was filled with tap water supplemented with 100 ppb of Compound 1 as the selective agent. Plant tanks were irrigated with the Compound 1 solution for four 30 minute periods per day beginning at 12 midnight, 8 AM, 12 noon, and 4 pm. […] The W20 plant was gently removed from the from the hydroponic planting tank and transplanted into a 20 cm pot containing a standard peat-based potting mixture. […] This observation led the applicant to believe that W20 represented a new class of resistant mutants. W20 was allowed to reach maturity under greenhouse conditions and produce an M3 line that was also referred to as W20.
M2 seeds of the Williams-NMU-1 treatment (Table II) were densely planted (approximately 16,600 seeds Per m2) on top of a level 7 cm layer of granular vermiculite supported by the upper chamber of the planting tank of the previously described large hydroponic selection system. […]

Row | Structure (SMILES) | uninhibited ALS activity as % of control (ALS of W4-5) | uninhibited ALS activity as % of control (ALS of W23-10) | uninhibited ALS activity as % of control (ALS of W4-4) | uninhibited ALS activity as % of control (ALS of W23-11) | uninhibited ALS activity as % of control (ALS of W20) | uninhibited ALS activity as % of control (ALS of W6-4) | uninhibited ALS activity as % of control (ALS of W6-1) | uninhibited ALS activity as % of control (ALS of Williams) | uninhibited ALS activity as % of control (ALS of W4-6) | uninhibited ALS activity as % of control (ALS of W6-2) | effect on surrounding seedlings ([1]; Modified Hydropot Solo units, twelve days after planting) | effect on background of wild type seedlings ([1]; large hydroponic unit, 8 days after planting)
1 | COC(=O)c1cccnc1S(=O)(=O)NC(=O)Nc1nc(OC)cc(OC)n1 [Compound 8, Methyl 2-[[[[(4,6-dimethoxy-2-pyrimidinyl)amino]carbonyl]amino]sulfonyl]-3-pyridinecarboxylate] | 7.1 % of control | 7.9 % of control | 37.6 % of control | 3.8 % of control | 10.7 % of control | 10.5 % of control | 8.5 % of control | -0.3 % of control | 4.0 % of control | 9.7 % of control | – | –
2 | COc1nc(C)nc(NC(=O)NS(=O)(=O)c2ccccc2Cl)n1 [Compound 1, 2-chloro-N-[[(4-methoxy-6-methyl-1,3,5-triazin-2-yl)amino]carbonyl]benzenesulfonamide] | – | – | – | – | – | – | – | – | – | – | lethal to the surrounding seedlings | uniformly inhibited
